# According to ChEMBL document CHEMBL1155276, “Anti-listerial activity and structure-activity relationships of the six major tyrocidines, cyclic decapeptides from Bacillus aneurinolyticus” (Bioorg Med Chem, 2009):
# Non-standard residues stand in square brackets, D forms with d. Residues, ends and D or L forms follow the SMILES beside them. Orn = NCCC[C@H](N)C(=O)O
# Tests used:
# Listeria monocytogenes [1] = assay: Antilysterial activity against leucocin A-sensitive Listeria monocytogenes B73 assessed as bacterial lysis half life at 10 uM by broth microdilution assay; type: functional, organism-based
# Listeria monocytogenes [2] = assay: Antibacterial activity against leucocin A-resistant Listeria monocytogenes B73-MR1 after 16 hrs by micro-gel well diffusion assay; type: functional
# Listeria monocytogenes [3] = assay: Antibacterial activity against leucocin A-sensitive Listeria monocytogenes B73 after 16 hrs by broth microdilution assay; type: functional, organism-based; conditions: B73, 16 h
# Listeria monocytogenes [4] = assay: Antibacterial activity against leucocin A-resistant Listeria monocytogenes B73-MR1 after 16 hrs by broth microdilution assay; type: functional, organism-based; conditions: B73-MR1, 16 h
# Listeria monocytogenes [5] = assay: Antilysterial activity against leucocin A-sensitive Listeria monocytogenes B73 assessed as bacterial lysis at 10 uM after 60 mins by broth microdilution assay; type: functional
# Micrococcus luteus [6] = assay: Antibacterial activity against Micrococcus luteus NCTC 8340 after 16 hrs by micro-gel well diffusion assay; type: functional
# Listeria monocytogenes [7] = assay: Antilysterial activity against leucocin A-sensitive Listeria monocytogenes B73 assessed as bacterial lysis per min at 10 uM by broth microdilution assay; type: functional
# Micrococcus luteus [8] = assay: Antibacterial activity against Micrococcus luteus NCTC 8340 after 16 hrs by broth microdilution assay; type: functional, organism-based; conditions: NCTC 8340, 16 h
# Listeria monocytogenes [9] = assay: Antibacterial activity against leucocin A-sensitive Listeria monocytogenes B73 after 16 hrs by micro-gel well diffusion assay; type: functional
# Escherichia coli = assay: Antibacterial activity against Escherichia coli HB101 at 200 ug/mL after 16 hrs by broth microdilution assay; type: functional
SMILES,T1/2 (Listeria monocytogenes [1]),ICmax (Listeria monocytogenes [2]),IC50 (Listeria monocytogenes [3]),IC50 (Listeria monocytogenes [4]),Activity (Listeria monocytogenes [5]),ICmax (Micrococcus luteus [6]),Activity (Listeria monocytogenes [7]),IC50 (Micrococcus luteus [8]),ICmax (Listeria monocytogenes [9]),Activity (Escherichia coli)
CC(C)C[C@@H]1NC(=O)[C@H](CCCN)NC(=O)[C@H](C(C)C)NC(=O)[C@@H]2CCCN2C(=O)[C@@H](Cc2ccccc2)NC(=O)[C@H](CC(C)C)NC(=O)[C@H](CCCN)NC(=O)[C@H](C(C)C)NC(=O)[C@@H]2CCCN2C(=O)[C@@H](Cc2ccccc2)NC1=O [GRAMICIDIN S] (cyclo(L[dF]PV[Orn]L[dF]PV[Orn])),38.5 min,6.2 µM,6.6 µM,3.9 µM,70%,31 µM,1.61%,6.7 µM,11 µM,
CC(C)C[C@@H]1NC(=O)[C@H](CCCCN)NC(=O)[C@H](C(C)C)NC(=O)[C@H](Cc2ccc(O)cc2)NC(=O)[C@H](CCC(N)=O)NC(=O)[C@H](CC(N)=O)NC(=O)[C@@H](Cc2ccccc2)NC(=O)[C@H](Cc2ccccc2)NC(=O)[C@@H]2CCCN2C(=O)[C@@H](Cc2ccccc2)NC1=O [TYROCIDINE A1],32.2 min,16 µM,18 µM,10 µM,62%,72 µM,1.47%,26 µM,38 µM,<50%
CC(C)C[C@@H]1NC(=O)[C@H](CCCN)NC(=O)[C@H](C(C)C)NC(=O)[C@H](Cc2ccc(O)cc2)NC(=O)[C@H](CCC(N)=O)NC(=O)[C@H](CC(N)=O)NC(=O)[C@@H](Cc2ccccc2)NC(=O)[C@H](Cc2ccccc2)NC(=O)[C@@H]2CCCN2C(=O)[C@@H](Cc2ccccc2)NC1=O [TYROCIDINE A] (cyclo(F[dF]NQYV[Orn]L[dF]P)),32.3 min,16 µM,13 µM,9.9 µM,59%,70 µM,1.62%,22 µM,25 µM,<50%
CC(C)C[C@@H]1NC(=O)[C@H](CCCCN)NC(=O)[C@H](C(C)C)NC(=O)[C@H](Cc2ccc(O)cc2)NC(=O)[C@H](CCC(N)=O)NC(=O)[C@H](CC(N)=O)NC(=O)[C@@H](Cc2ccccc2)NC(=O)[C@H](Cc2c[nH]c3ccccc23)NC(=O)[C@@H]2CCCN2C(=O)[C@@H](Cc2ccccc2)NC1=O [TYROCIDINE B1],29.6 min,10 µM,8.1 µM,6.7 µM,63%,8.9 µM,1.68%,4.2 µM,15 µM,<50%
CC(C)C[C@@H]1NC(=O)[C@H](CCCN)NC(=O)[C@H](C(C)C)NC(=O)[C@H](Cc2ccc(O)cc2)NC(=O)[C@H](CCC(N)=O)NC(=O)[C@H](CC(N)=O)NC(=O)[C@@H](Cc2ccccc2)NC(=O)[C@H](Cc2c[nH]c3ccccc23)NC(=O)[C@@H]2CCCN2C(=O)[C@@H](Cc2ccccc2)NC1=O [TYROCIDINE B],28.8 min,12 µM,10 µM,7.7 µM,64%,9.9 µM,1.53%,6.5 µM,15 µM,<50%
CC(C)C[C@@H]1NC(=O)[C@H](CCCCN)NC(=O)[C@H](C(C)C)NC(=O)[C@H](Cc2ccc(O)cc2)NC(=O)[C@H](CCC(N)=O)NC(=O)[C@H](CC(N)=O)NC(=O)[C@@H](Cc2c[nH]c3ccccc23)NC(=O)[C@H](Cc2c[nH]c3ccccc23)NC(=O)[C@@H]2CCCN2C(=O)[C@@H](Cc2ccccc2)NC1=O [TYROCIDINE C1],27.5 min,16 µM,9.3 µM,7.5 µM,60%,15 µM,1.55%,7.3 µM,22 µM,<50%
CC(C)C[C@@H]1NC(=O)[C@H](CCCN)NC(=O)[C@H](C(C)C)NC(=O)[C@H](Cc2ccc(O)cc2)NC(=O)[C@H](CCC(N)=O)NC(=O)[C@H](CC(N)=O)NC(=O)[C@@H](Cc2c[nH]c3ccccc23)NC(=O)[C@H](Cc2c[nH]c3ccccc23)NC(=O)[C@@H]2CCCN2C(=O)[C@@H](Cc2ccccc2)NC1=O [TYROCIDINE C],31.2 min,11 µM,9.5 µM,7 µM,66%,9 µM,1.48%,6.4 µM,13 µM,<50%
CC(C)C[C@@H]1NC(=O)[C@H](CCCN)NC(=O)[C@H](C(C)C)NC(=O)[C@H](Cc2ccc(O)cc2)N[C@@H](CCC(=O)O)C(=O)N[C@@H](CC(N)=O)C(=O)[C@@H](Cc2ccccc2)NC(=O)[C@H](Cc2ccccc2)NC(=O)[C@@H]2CCCN2C(=O)[C@@H](Cc2ccccc2)NC1=O [TYROTHRICIN],,29 µg/mL,12 µg/mL,9.7 µg/mL,,6.3 µg/mL,,3.5 µg/mL,21 µg/mL,
